The results in this text go back to patent US12509451B2, “Heteroaryl amide inhibitors of CD38” (NAPA THERAPEUTICS LTD., priority 2020, dated 2025).

Usually IC50 stands for the concentration that gives 50% inhibition.

In test [1] the target is T1, recombinant human CD38 Protein (Homo sapiens, UniProt P28907).
T1 construct: purchased R&D System
T1 sequence (P28907 1-300): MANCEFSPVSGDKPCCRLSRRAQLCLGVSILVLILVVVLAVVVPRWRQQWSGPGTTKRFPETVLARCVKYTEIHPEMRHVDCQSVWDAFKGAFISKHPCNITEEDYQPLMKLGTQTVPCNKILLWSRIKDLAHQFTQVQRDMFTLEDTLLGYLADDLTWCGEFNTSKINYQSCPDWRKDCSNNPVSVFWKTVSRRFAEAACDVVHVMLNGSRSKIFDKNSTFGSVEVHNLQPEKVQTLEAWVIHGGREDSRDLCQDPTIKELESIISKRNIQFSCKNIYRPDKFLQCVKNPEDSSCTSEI
Briefly: Fluorescence-based NAD+ cyclase activity assay with human recombinant CD38 protein (Assay 2). Type of test: biochemical. To be noted: read-out: Assay 2 Arithmetic mean IC50. As for the experimental part:
This protocol was modified from the de Oliveira et al., 2018 reference, supra.
NAD+ cyclase activity of the human recombinant CD38 protein treated with test compounds was measured using a fluorescence-based assay. Briefly, recombinant human CD38 Protein (R&D System) was resuspended in 44 μl/well of Sucrose-Tris Buffer (Sucrose 0.25 M, Tris pH 7.4 40 mM) and plated in a 96-well black plate (CORNING) at a density of 125 ng/well.
(§1) Each test compound was received in a powder state and dissolved in DMSO as a 25 mM stock solution. Each test compound was serially diluted in order to generate a dose-response curve. The dilution series of each test compound in DMSO was prepared at 50 times the concentrations to be assayed. Each test compound was diluted to generate a 5-fold dilution series of 8 concentrations from 100 μM to 32 nM in order to assay 8 final concentrations ranging from 2 μM to 0.64 nM. One μl of the 50× concentration compound series was added to each well of the plate containing 125 ng of protein in Sucrose-Tris buffer.
The reaction was started adding nicotinamide guanine dinucleotide (NGD+) (Sigma Aldrich) to reach a final concentration of 150 µM. The samples were excited at 337-15 nm, and the emission of fluorescence was measured at 442-20 nm at 37° C. every minute for 1 hr in a Clariostar microplate reader (BMG LABTECH). NAD+ cyclase activity was calculated as the slope of the linear portion of the fluorescence-time curve using the MARS data analysis software (BMG LABTECH). The data were uploaded in the Collaborative Drug Design (CDD) Software, and for each compound the IC50 was calculated by the software. For each plate, the z-factor was also calculated as a plate quality using the CDD software.

For test [2], the target named is T2, CD38 NAD+ hydrolase activity in NH7-dCas9 cells (Jurkat clone) (Homo sapiens, UniProt P28907).
T2 construct: The assay utilized CD38 expressing NH7-dCas9 cells (Jurkat clone); host or cells: NH7-dCas9 cells (Jurkat clone)
T2 sequence (P28907 1-300): T1 sequence (P28907 1-300)
Briefly: Fluorescence-based NAD+ hydrolase activity assay with human T cell line NH7-dCas9 cells-Jurkat clone (Assay 1). To be noted: read-out: Assay 1 Arithmetic mean IC50. As for the experimental part:
For the modified assay, the performance validation criteria of the assay as a High Throughput Screening (HTS): Z-factor within the plate was greater than 0.89 (optimal HTS z-factor >0.5) and the Intra-plate, inter-plate and day to day variability (CV) was less than 20%.
NAD+ hydrolase activity of a human T cell line treated with test compounds was measured using a fluorescence-based assay. NH7-dCas9 cells (Jurkat clone) were provided by the Weissman Lab (UCSF 1700 4th St., Byers Hall, Room 403B, San Francisco, CA 94158-2330). Briefly, cells were centrifuged, resuspended in 44 μl PBS/10^6 cells and plated in a 96 well black plate (CORNING) at a density of 1×10^6 per well.
Each test compound was received in a powder state and dissolved in DMSO as a 25 mM stock solution. Each test compound was serially diluted in order to generate a dose-response curve. The dilution series of each test compound in DMSO was prepared at 50 times the concentrations to be assayed. Each test compound was diluted to generate a 5-fold dilution series of 8 concentrations from 20 μM to 0.256 nM in order to assay 8 final concentrations ranging from 400 nM to 25.6 pM. One μl of the 50× concentration compound series was added to each well of the plate containing 1×10^6 cells in PBS.
Each plate had the following intra plate controls: 3 wells containing cells treated with vehicle only (DMSO), 3 wells of cells treated with the reference compound 78c at a final concentration of 50 nM and 2 wells containing only PBS (used as a background value).
(§2) The reaction was started by adding nicotinamide 1,N^6-etheno-adenine dinucleotide (Sigma Aldrich) to reach a final concentration of 80 µM. The samples were excited at 321-15 nm, and the emission of fluorescence was measured at 410-20 nm at 37° C. every minute for 1 hr in a Clariostar® microplate reader (BMG LABTECH). NAD+ hydrolase activity was calculated as the slope of the linear portion of the fluorescence-time curve using the MARS data analysis software (BMG LABTECH). The data were uploaded in the Collaborative Drug Design (CDD) Software and for each compound the IC50 was calculated by the software. Each compound was tested in 3 independent experiments on 3 separate days to establish the reproducibility of the results. For each plate, the z-factor was also calculated as a plate quality using the CDD software.

Test [3] has as its target T1, recombinant human CD38 Protein. Briefly: Fluorescence-based NAD+ hydrolase activity assay with human recombinant CD38 protein (Assay 3). It counts as biochemical. To be noted: read-out: Assay 3 Arithmetic mean IC50. The method, then: This protocol was modified from the following references (Muller et al. (1983); (Schultz et al. (2018); (Matalonga et al. (2017); and de Oliveira et al. (2018), supra.
NAD+ hydrolase activity of the human recombinant CD38 protein treated with test compounds was measured using a fluorescence-based assay. Briefly, recombinant human CD38 Protein (R&D System) was resuspended in 44 μl/well of Sucrose-Tris Buffer (Sucrose 0.25 M, Tris pH 7.4 40 mM) and plated in a 96-well black plate (CORNING) at a density of 10 ng/well.
Each test compound was received in a powder state and dissolved in DMSO as a 25 mM stock solution. Each test compound was serially diluted in order to generate a dose-response curve. The dilution series of each test compound in DMSO was prepared at 50× the concentrations to be assayed. Each test compound was diluted to generate a 5-fold dilution series of 8 concentrations from 20 μM to 0.256 nM in order to assay 8 final concentrations ranging from ranging from 400 nM to 25.6 pM. One μl of the 50× concentration compound series was added to each well of the plate containing 10 ng protein in Sucrose-Tris buffer.
as §2, with “started” for “started by”, “nm” for “nm,”, “Each compound was tested in 3 independent experiments on 3 separate days to establish the reproducibility of the results.” left out

Test [4] has as its target T3, recombinant mouse CD38 Protein (Mus musculus, UniProt P56528).
T3 construct: purchased R&D System
T3 sequence (P56528 1-304): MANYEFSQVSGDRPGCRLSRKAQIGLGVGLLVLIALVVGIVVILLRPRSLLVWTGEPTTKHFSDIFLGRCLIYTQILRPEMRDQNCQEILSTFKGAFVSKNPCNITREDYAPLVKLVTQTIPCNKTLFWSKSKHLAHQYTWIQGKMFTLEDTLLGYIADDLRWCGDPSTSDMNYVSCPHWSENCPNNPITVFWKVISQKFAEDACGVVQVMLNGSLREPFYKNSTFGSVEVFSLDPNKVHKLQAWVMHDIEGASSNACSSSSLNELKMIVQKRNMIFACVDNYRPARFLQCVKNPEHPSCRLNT
The test is described as follows: Fluorescence-based NAD+ hydrolase activity assay with mouse recombinant CD38 protein (Assay 5). Type of test: biochemical. The note with it: read-out: Assay 5 Arithmetic mean IC50. The method, then: This protocol was modified from the following references: Muller et al. (1983); Schultz et al. (2018); Matalonga et al. (2017); and de Oliveira et al. (2018), supra.
NAD+ hydrolase activity of the mouse recombinant CD38 protein treated with test compounds was measured using a fluorescence-based assay. Briefly, recombinant mouse CD38 Protein (R&D System) was resuspended in 44 μl/well of Sucrose-Tris Buffer (Sucrose 0.25 M, Tris pH 7.4 40 mM) and plated in a 96 well black plate (CORNING) at a density of 2.5 ng/well.
Each test compound was received in a powder state and dissolved in DMSO as a 25 mM stock solution. Each test compound was serially diluted in order to generate a dose-response curve. The dilution series of each test compound in DMSO was prepared at 50 times the concentrations to be assayed. Each test compound was diluted to generate a 5-fold dilution series of 8 concentrations from 20 μM to 0.256 nM in order to assay 8 final concentrations ranging from 400 nM to 25.6 pM. One μl of the 50× concentration compound series was added to each well of the plate containing 2.5 ng of protein in Sucrose-Tris buffer.
Each plate had the following intra plate controls: 3 wells containing cells treated with vehicle only (DMSO), 3 wells of cells treated with the reference compounds 78c at a final concentration of 50 nM and 2 wells containing only Sucrose-Tris buffer (used as a background value).
as §2, with “started” for “started by”, “nm” for “nm,”, “Clariostar Microplate®” for “Clariostar® microplate”

Test [5] addresses T3, recombinant mouse CD38 Protein. Briefly: Fluorescence-based NAD+ cyclase activity assay with mouse recombinant CD38 protein (Assay 4). Type of test: biochemical. To be noted: read-out: Assay 4 Arithmetic mean IC50. As for the experimental part:
This protocol was modified from de Oliveira et al. (2018) supra.
NAD+ cyclase activity of the […] recombinant CD38 protein treated with test compounds was measured using a fluorescence-based assay. Briefly, recombinant mouse CD38 Protein (R&D System) was resuspended in 44 μl/well of Sucrose-Tris Buffer (Sucrose 0.25 M, Tris pH 7.4 40 mM) and plated in a 96-well black plate (CORNING) at a density of 32 ng/well.
as §1
Each plate had the following intra plate controls: 3 wells containing cells treated with vehicle only (DMSO), 3 wells of cells treated with the reference compounds 78c at a final concentration of 500 nM and 2 wells containing only Sucrose-Tris buffer (used as a background value).
The reaction was started adding nicotinamide guanine dinucleotide (NGD+) (Sigma Aldrich) to reach a final concentration of 150 µM. The samples were excited at 337-15 nm and the emission of fluorescence was measured at 442-20 nm at 37° C. every minute for 1 hr in a Clariostar® microplate reader (BMG LABTECH). NAD+ cyclase activity was calculated as the slope of the linear portion of the fluorescence-time curve using the MARS data analysis software (BMG LABTECH). The data were uploaded in the Collaborative Drug Design (CDD) Software and for each compound the IC50 was calculated by the software. Each compound was tested in 3 independent experiments on 3 separate days to establish the reproducibility of the results. For each plate, the z-factor was also calculated as a plate quality using the CDD software.

`O=C(Nc1cc(F)nc(F)c1)c1cccc(-n2ccnc2)n1` [Compound 5]: the IC50 in test [1] was 51 to 1000 nM; in test [2] it was less than 1 nM; in test [3] it was less than 1 nM.
Turning to `CCOC(=O)c1cc(NC(=O)c2cccc(-n3ccnc3)n2)ccn1` [Compound 6], the IC50 in test [1] was 51 to 1000 nM; in test [2], less than 1 nM; in test [3], 1 to 50 nM.
For `CC1(Oc2cc(C(=O)Nc3ccnc(C(F)(F)F)c3)nc(-n3ccnc3)n2)COC1` [Compound 41], the IC50 in test [4] lay in the range of 1 to 50 nM; in test [5], 51 to 1000 nM.
Take `O=C(Nc1cccnc1)c1cncc(-n2ccnc2)n1` [Compound 70]: the IC50 in test [1] was 1000 to 10000 nM; in test [2] it was less than 1 nM; in test [3] it was less than 1 nM.
